Like-named read-outs stand apart in the source and are kept apart here.
Experiments:
[1] = tested on: Akt, ERK, JNK and p38 phosphorylation in LNCaP cells; experiment: Western blot of kinase phosphorylation in LNCaP cells; format: cell-based
Procedure: Cells cultured in T25 flasks were collected by scraping, and cell pellets were washed once with PBS. Cells were lysed in a lysis buffer consisting of 1% SDS, 10 mM EDTA and 50 mM Tris-HCl, pH 8.1, in the presence of a commercial protease inhibitor cocktail from Aldrich-Sigma (2 mM AEBSF, 1 mM EDTA, 130 μM bestatin, 14 μM E-64, 1 μM leupeptin, and 0.3 μM aprotinin). Following a 10-sec sonication using 20% output in a Virsonic 300 sonicator (Virtis, Gardiner N.Y.) to disrupt cellular organelles and genomic DNA, cell lysates were centrifuged at 15,200×g for 15 minutes. One μL of the suspension was used for protein determination using a colorimetric BCA assay (Pierce, Rockford, Ill.), and to the remaining solution was added an equivalent volume of 2×SDS-polyacrylamide gel electrophoresis sample loading buffer (62.5 mM Tris-HCl, pH 6.8, 4% SDS, 5% β-mercaptoethanol, 20% glycerol, and 0.1% bromophenol blue), and boiled for 5 min. Equal amounts of proteins were resolved in 8% SDS-polyacrylamide gels, and transferred to nitrocellulose membranes using a semidry transfer cell. The transblotted membrane was washed twice with Tris-buffered saline containing 0.1% Tween 20 (TBST). After blocking with TBST containing 5% nonfat milk for 40 min, the membrane was incubated with the appropriate primary antibody in TBST-1% nonfat milk at 4° C. overnight. […]

[2] = tested on: normal prostate epithelial cells (PrECs); experiment: MTT viability assay, normal prostate epithelial cells
Procedure: (§1) LNCaP androgen-dependent (p53^+/+) and PC-3 androgen-nonresponsive (p53^−/−) prostate cancer cells were purchased from the American Type Culture Collection (Manassas, Va.), and cultured in RPMI 1640 medium containing 10% heat-inactivated FBS. […] All cell types were cultured at 37° C. in a humidified incubator containing 5% CO2. Cells in log phase growth were harvested by trypsinization for use in the MTT viability assay. LNCaP cells were plated in poly-D-lysine coated culture flasks in order to assist cell adherence to the surface. Prior to drug treatment, cells were plated in a density of 12,000 cells/cm^2 surface area in the respective culture medium for 24-48 h, followed by individual test agents in 2.5% FBS-supplemented RPMI medium.

[3] = tested on: AR and its target gene product PSA in LNCaP cells; experiment: Western blot of AR and PSA expression in LNCaP cells; format: cell-based; settings: LNCaP cells, 72 h of incubation, 2.5% FBS, Western blot, read-out: concentration reducing expression of AR and PSA by 50%
Procedure: Cells cultured in T25 flasks were collected by scraping, and cell pellets were washed once with PBS. Cells were lysed in a lysis buffer consisting of 1% SDS, 10 mM EDTA and 50 mM Tris-HCl, pH 8.1, in the presence of a commercial protease inhibitor cocktail from Aldrich-Sigma (2 mM AEBSF, 1 mM EDTA, 130 μM bestatin, 14 μM E-64, 1 μM leupeptin, and 0.3 μM aprotinin). Following a 10-sec sonication using 20% output in a Virsonic 300 sonicator (Virtis, Gardiner N.Y.) to disrupt cellular organelles and genomic DNA, cell lysates were centrifuged at 15,200×g for 15 minutes. One μL of the suspension was used for protein determination using a colorimetric BCA assay (Pierce, Rockford, Ill.), and to the remaining solution was added an equivalent volume of 2×SDS-polyacrylamide gel electrophoresis sample loading buffer (62.5 mM Tris-HCl, pH 6.8, 4% SDS, 5% β-mercaptoethanol, 20% glycerol, and 0.1% bromophenol blue), and boiled for 5 min. Equal amounts of proteins were resolved in 8% SDS-polyacrylamide gels, and transferred to nitrocellulose membranes using a semidry transfer cell. The transblotted membrane was washed twice with Tris-buffered saline containing 0.1% Tween 20 (TBST). After blocking with TBST containing 5% nonfat milk for 40 min, the membrane was incubated with the appropriate primary antibody in TBST-1% nonfat milk at 4° C. overnight. All primary antibodies were diluted 1:1000 in 1% nonfat milk-containing TBST. After treatment with the primary antibody, the membrane was washed three times with TBST for a total of 15 min, followed by incubation with goat anti-rabbit or anti-mouse Immunoglobulin G (IgG)-horseradish peroxidase conjugates (diluted 1:2000) for 1 h at room temperature and four washes with TBST for a total of 1 h. The immunoblots were visualized by enhanced chemiluminescence.

[4] = tested on: normal prostate epithelial cells (PrECs)
Procedure: as §1

IC50 ([3]; Homo sapiens) [µM]	Compound	phosphorylation levels of Akt, ERK, JNK, p38 [1]	antiproliferative effect on PrECs relative to malignant cells [2]	antiproliferative effect on PrECs relative to malignant cells [4]	IC50 [3] [µM]
5	Cc1c(C)c2c(c(C)c1OC(=O)CCC(=O)O)CCC(C)(CCCC(C)CCCC(C)C)O2 (stereo not drawn) [TS-1, succinic acid mono-[2-(4,8-dimethyl-nonyl)-2,5,7,8-tetramethylchroman-6-yl]ester]	dose-dependent reduction in the phosphorylation levels of all four kinases examined	resistant		
	Cc1c(C)c2c(c(C)c1OC(=O)CCC(=O)O)CC[C@@](C)(CCC[C@H](C)CCC[C@H](C)CCCC(C)C)O2 [VES, α-tocopheryl succinate]	dose-dependent reduction in the phosphorylation levels of all four kinases examined		resistant	≥ 10

Reference: patent US8461362B2, “Protein phosphatase 2A-activating agents” (The Ohio State University Research Foundation, priority 2009, dated 2013)
